Results published in ChEMBL document CHEMBL5303766, “Data for DCP probe FHT-2344” (2022).

How the values were obtained:
[1] = biological target: T1, Dual specificity mitogen-activated protein kinase kinase 7 (Homo sapiens) (UniProt O14733); test: MAP2K7 SGC Tm panel (DSF); details: for ΔTm: Compound concentration 10.0 uM
T1 sequence (whole entry): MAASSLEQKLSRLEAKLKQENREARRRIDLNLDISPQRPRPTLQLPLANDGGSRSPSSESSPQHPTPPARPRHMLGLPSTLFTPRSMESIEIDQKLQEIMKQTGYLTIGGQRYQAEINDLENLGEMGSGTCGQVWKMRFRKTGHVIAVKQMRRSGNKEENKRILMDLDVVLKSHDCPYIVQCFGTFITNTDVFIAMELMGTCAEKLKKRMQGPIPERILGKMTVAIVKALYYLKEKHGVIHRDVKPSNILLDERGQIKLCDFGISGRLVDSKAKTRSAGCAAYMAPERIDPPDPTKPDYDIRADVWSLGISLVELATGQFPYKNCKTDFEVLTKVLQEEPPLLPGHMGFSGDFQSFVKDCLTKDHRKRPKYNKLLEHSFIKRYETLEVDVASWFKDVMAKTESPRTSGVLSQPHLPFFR

[2] = biological target: Alpha-1D adrenergic receptor (Homo sapiens) (UniProt P25100); details: Compound concentration 10.0 uM
[3] = biological target: GABA-A receptor; anion channel (Rattus norvegicus) (UniProt O09028+P15431+P18506+P18508+P19969+P20236+P23574+P23576+P28471+P28473+P30191+P62813+P63079+P63138+Q91ZM7+Q9ES14); details: Compound concentration 10.0 uM
[4] = biological target: Vascular endothelial growth factor receptor 1 (Homo sapiens) (UniProt P17948); test: FLT1 SGC Tm panel (DSF); details: for ΔTm: Compound concentration 10.0 uM
[5] = biological target: Calcium/calmodulin-dependent protein kinase type 1G (Homo sapiens) (UniProt Q96NX5); test: CAMK1G SGC Tm panel (DSF); details: for ΔTm: Compound concentration 10.0 uM
[6] = biological target: T2, Serine/threonine-protein kinase Nek1 (Homo sapiens) (UniProt Q96PY6); test: NEK1 SGC Tm panel (DSF); details: for ΔTm: Compound concentration 10.0 uM
T2 sequence (whole entry): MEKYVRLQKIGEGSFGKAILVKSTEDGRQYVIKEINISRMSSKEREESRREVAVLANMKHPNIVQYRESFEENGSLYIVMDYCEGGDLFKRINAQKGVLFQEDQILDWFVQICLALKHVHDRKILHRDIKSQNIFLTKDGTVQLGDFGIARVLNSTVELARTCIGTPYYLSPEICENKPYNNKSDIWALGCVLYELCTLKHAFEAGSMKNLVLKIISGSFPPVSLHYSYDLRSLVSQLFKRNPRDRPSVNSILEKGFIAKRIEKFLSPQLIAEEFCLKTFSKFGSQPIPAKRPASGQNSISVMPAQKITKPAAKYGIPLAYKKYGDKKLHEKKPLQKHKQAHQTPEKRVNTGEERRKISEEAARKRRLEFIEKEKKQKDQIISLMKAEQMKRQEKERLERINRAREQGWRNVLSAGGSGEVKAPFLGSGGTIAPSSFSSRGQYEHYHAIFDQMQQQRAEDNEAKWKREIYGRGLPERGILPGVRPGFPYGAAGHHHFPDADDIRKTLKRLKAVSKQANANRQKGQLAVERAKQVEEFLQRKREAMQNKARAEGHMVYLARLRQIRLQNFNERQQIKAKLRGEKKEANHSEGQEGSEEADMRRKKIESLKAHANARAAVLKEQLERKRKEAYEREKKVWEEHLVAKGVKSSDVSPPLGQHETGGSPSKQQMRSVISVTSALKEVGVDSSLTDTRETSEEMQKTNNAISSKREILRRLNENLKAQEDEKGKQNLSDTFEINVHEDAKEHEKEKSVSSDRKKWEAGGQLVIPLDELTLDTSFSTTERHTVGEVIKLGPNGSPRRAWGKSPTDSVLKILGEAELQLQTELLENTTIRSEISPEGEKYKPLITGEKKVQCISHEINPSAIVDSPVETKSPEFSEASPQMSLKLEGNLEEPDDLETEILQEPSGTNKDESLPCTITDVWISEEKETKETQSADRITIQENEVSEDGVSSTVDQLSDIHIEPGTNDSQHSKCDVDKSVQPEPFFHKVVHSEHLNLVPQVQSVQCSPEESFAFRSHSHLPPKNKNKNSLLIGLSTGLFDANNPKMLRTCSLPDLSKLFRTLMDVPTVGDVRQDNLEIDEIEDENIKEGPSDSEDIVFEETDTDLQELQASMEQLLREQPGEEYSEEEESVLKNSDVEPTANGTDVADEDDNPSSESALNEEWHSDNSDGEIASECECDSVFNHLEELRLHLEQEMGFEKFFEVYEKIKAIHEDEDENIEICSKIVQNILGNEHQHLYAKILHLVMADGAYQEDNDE

[7] = biological target: T3, Dual specificity mitogen-activated protein kinase kinase 4 (Homo sapiens) (UniProt P45985); test: MAP2K4 SGC Tm panel (DSF); details: for ΔTm: Compound concentration 10.0 uM
T3 sequence (whole entry): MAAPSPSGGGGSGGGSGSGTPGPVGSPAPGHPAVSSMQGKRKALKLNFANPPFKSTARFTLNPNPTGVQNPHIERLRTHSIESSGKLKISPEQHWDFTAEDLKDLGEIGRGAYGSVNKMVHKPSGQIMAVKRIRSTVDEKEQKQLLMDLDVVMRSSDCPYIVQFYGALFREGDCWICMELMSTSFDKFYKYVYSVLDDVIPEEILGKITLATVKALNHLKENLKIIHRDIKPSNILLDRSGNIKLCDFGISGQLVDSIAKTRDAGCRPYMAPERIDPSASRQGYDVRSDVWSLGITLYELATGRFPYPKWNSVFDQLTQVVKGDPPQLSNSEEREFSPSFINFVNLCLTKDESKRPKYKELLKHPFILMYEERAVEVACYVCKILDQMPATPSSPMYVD

[8] = biological target: Beta-2 adrenergic receptor (Homo sapiens) (UniProt P07550); details: Compound concentration 10.0 uM
[9] = biological target: BMP-2-inducible protein kinase (Homo sapiens) (UniProt Q9NSY1); test: BMP2K SGC Tm panel (DSF); details: for ΔTm: Compound concentration 10.0 uM
Chain of BMP-2-inducible protein kinase (Homo sapiens) (Q9NSY1 whole entry, looked up): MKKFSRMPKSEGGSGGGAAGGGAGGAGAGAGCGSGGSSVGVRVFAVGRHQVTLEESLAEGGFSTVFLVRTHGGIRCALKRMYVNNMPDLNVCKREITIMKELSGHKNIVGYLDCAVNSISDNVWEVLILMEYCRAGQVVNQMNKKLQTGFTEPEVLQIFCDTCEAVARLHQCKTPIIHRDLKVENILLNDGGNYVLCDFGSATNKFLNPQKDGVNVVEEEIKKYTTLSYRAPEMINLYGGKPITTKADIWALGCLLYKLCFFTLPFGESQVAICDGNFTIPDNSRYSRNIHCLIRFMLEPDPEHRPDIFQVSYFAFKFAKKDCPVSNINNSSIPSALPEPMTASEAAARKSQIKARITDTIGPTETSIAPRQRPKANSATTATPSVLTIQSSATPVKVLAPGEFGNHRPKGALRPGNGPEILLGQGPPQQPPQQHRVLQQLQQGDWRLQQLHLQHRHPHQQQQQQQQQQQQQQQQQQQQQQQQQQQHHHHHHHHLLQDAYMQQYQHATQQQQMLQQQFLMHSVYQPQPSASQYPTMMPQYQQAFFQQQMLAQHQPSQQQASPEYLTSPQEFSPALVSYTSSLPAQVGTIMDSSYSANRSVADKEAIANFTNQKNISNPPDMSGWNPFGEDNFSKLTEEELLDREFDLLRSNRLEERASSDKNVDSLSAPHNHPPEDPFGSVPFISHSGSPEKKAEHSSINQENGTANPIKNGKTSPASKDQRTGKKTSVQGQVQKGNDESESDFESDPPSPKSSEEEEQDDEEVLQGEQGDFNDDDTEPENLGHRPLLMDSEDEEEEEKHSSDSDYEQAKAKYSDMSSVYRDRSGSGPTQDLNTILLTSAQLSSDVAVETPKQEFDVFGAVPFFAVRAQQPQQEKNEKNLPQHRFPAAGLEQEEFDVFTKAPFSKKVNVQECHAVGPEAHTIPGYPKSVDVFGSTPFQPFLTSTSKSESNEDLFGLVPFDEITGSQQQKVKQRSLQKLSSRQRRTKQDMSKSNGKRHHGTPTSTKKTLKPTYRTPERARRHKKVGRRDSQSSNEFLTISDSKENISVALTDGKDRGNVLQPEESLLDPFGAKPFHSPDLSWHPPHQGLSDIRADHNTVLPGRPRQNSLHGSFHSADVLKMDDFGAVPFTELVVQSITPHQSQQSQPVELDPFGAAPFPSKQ

Chain of Vascular endothelial growth factor receptor 1 (Homo sapiens) (P17948 whole entry): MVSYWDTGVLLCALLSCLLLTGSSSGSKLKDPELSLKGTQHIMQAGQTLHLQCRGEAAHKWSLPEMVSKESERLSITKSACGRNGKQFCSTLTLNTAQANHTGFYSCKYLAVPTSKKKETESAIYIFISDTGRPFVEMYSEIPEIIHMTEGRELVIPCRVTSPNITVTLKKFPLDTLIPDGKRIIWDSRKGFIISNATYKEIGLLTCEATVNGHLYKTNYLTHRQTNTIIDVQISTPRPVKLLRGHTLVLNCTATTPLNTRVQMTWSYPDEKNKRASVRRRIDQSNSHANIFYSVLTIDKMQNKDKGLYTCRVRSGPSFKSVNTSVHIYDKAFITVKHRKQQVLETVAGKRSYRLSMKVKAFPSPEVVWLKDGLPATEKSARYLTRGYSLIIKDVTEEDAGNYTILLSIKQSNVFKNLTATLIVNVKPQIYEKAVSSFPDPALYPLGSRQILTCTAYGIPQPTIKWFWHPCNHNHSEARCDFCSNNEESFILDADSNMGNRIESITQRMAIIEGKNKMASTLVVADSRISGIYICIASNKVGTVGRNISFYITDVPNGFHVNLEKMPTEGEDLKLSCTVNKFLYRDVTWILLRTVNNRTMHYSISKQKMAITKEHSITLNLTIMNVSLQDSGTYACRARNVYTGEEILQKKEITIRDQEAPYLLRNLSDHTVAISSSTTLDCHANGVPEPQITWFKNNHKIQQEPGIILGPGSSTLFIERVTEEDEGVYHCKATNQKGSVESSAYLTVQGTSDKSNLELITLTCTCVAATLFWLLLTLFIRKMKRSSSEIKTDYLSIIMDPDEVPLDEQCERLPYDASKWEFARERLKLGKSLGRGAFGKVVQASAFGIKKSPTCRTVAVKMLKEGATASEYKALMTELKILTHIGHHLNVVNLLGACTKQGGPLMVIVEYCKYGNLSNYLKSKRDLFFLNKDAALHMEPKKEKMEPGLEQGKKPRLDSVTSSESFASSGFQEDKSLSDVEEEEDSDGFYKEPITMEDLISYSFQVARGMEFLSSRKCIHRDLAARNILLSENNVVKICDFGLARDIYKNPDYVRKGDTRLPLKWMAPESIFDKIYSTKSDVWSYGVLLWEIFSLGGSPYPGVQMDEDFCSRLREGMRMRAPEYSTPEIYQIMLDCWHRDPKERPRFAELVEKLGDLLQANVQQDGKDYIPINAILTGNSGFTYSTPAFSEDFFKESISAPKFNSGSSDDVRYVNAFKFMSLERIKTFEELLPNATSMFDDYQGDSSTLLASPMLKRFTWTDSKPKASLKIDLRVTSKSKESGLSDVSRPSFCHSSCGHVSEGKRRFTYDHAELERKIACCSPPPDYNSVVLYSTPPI
Chain of Calcium/calmodulin-dependent protein kinase type 1G (Homo sapiens) (Q96NX5 whole entry): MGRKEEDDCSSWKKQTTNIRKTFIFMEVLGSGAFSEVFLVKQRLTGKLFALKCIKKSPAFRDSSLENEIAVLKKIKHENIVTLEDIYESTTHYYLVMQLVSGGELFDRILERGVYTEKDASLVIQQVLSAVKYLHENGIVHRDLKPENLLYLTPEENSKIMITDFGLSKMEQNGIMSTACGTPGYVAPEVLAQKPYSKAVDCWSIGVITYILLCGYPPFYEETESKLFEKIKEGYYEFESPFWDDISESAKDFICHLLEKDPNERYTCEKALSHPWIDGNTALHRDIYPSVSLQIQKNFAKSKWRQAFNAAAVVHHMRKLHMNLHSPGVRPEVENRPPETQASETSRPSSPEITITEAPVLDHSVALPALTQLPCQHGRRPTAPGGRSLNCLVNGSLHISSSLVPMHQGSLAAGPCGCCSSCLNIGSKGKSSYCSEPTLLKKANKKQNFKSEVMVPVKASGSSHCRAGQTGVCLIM
Chain of Beta-2 adrenergic receptor (Homo sapiens) (P07550 whole entry, looked up): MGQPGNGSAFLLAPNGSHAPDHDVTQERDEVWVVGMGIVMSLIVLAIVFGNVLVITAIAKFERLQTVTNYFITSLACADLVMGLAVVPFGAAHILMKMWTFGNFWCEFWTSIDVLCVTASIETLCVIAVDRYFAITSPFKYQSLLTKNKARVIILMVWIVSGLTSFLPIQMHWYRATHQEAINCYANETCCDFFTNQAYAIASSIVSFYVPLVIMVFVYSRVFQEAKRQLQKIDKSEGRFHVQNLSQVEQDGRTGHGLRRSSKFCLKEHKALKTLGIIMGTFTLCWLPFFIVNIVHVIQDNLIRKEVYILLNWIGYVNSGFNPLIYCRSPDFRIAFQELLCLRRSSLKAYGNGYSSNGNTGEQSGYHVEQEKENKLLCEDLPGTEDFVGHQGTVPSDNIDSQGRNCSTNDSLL
Chain of Alpha-1D adrenergic receptor (Homo sapiens) (P25100 whole entry): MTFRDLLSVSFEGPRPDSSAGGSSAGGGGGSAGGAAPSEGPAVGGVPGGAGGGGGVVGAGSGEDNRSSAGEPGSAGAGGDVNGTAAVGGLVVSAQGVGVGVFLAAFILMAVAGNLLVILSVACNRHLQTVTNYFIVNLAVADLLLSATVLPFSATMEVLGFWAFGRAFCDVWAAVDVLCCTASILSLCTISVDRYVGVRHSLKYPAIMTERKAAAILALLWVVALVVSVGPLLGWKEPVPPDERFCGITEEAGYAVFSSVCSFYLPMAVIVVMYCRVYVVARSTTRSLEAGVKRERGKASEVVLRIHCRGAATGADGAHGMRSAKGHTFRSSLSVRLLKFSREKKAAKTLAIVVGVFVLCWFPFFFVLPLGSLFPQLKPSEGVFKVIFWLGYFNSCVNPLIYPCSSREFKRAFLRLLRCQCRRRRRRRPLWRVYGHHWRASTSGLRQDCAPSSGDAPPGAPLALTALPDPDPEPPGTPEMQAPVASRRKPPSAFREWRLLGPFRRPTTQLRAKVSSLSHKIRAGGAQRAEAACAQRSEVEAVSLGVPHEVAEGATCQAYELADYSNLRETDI

SMILES | delta Tm Staurosporine positive control [1] | ΔTm [1] | inhibition [2] [%] | inhibition [3] [%] | delta Tm Staurosporine positive control [4] | ΔTm [4] | delta Tm Staurosporine positive control [5] | ΔTm [5] | delta Tm Staurosporine positive control [6] | ΔTm [6] | delta Tm Staurosporine positive control [7] | ΔTm [7] | inhibition [8] [%] | delta Tm Staurosporine positive control [9] | ΔTm [9]
C[C@H](NC(=O)c1cn(C2(C#N)CC2)cn1)C(=O)Nc1nc(-c2cccc(-c3ccn(C)n3)c2)cs1 | 6.68 | 0.97 | 42 | 31.5 | 11.1 | -0.217 | 13.3 | 0.371 | -0.578 | -0.482 | 10.8 | 0.342 | -5.95 | 18.7 | 0.335
COC[C@H](NC(=O)c1ccn(S(C)(=O)=O)c1)C(=O)Nc1nc(-c2cccc(-c3ccn(C)n3)c2)cs1 | 6.68 | 0.168 | 30.4 | 16 | 11.1 | -0.0497 | 13.3 | -0.0351 | -0.578 | -0.226 | 10.8 | 0.427 | 1.42 | 18.7 | 0.214
